What was measured:
DR4 = test: Disulfide bond-mediated oligomerization, non-reducing immunoblot; format: cell-based
Excerpt: (§1) The BT20, BT474, BT549, MCF7, MDA-MB-231, MDA-MB-436, MDA-MB-468, HCC1143, HCC1500, HCC1569, HCC1937, HCC1954, Hs578t, and T47D cells lines were purchased from American Type Culture Collection (ATCC) (Manassas, VA). The HCI-001 cell line was derived from an ER-/PR-/HER2- patient-derived xenograft originally isolated from a patient as described previously (DeRose Y S, et al. Nat Med 2011; 17: 1514-1520). The HCI-001/LVM2 model was derived from the HCI-001 cell line by performing two rounds of selection for liver metastasis, as described previously (Wang M, et al. Cell Death Discovery 2019; 5: 153). Cell lines were grown in Dulbecco's Modified Eagle's Medium (GE Healthcare Life Sciences, Logan, UT) containing 10% fetal bovine serum (10% FBS—DMEM) in a humidified incubator with 5% CO2 at 37° C. Cell lysates were prepared as described previously (Law B K, et al. Mol Cell Biol. 2002; 22: 8184-8198). Immunoblot analysis was performed utilizing the following antibodies purchased from Cell Signaling Technology (Beverly, MA) [Akt, #4691; P-Akt[T308], #13038; ATF4, #11815; CHOP, #2895; Cleaved Caspase 8, #9496; DR4, #42533; DR5, #8074; EGFR, #4267; GRP78, #3177; HER3, #4754; PARP, #9532; PDIA1, #3501; XBP1s, #12782], from Santa Cruz Biotechnology (Santa Cruz, CA) [Actin, sc-47778; AGR2/3, sc-376653; AGR3, sc-390940; ERO1-a, sc-100805; and ERp44, sc-393687], or from Rockland Immunochemicals, Inc. (Limerick, PA), Streptavidin-Alkaline Phosphatase conjugated (SA-AP), S000-05.
(§2) To assess protein disulfide bond-mediated oligomerization, cells were treated with DDAs for 24 h in 10% FBS-DMEM. Cells were subsequently scraped directly into the media and pelleted by centrifugation. Cells were extracted directly into boiling 2×-SDS-Sample Buffer containing 100 mM NEM and boiled for 10 min. Samples were sonicated, followed by centrifugation for 20 min at room temperature. Samples were subsequently analyzed by SDS-PAGE and immunoblot.

EGFR = test: as above; format: cell-based; conditions: MDA-MB-468 cells, 24 h, FIG. 1E right
Excerpt: as §1, §2

ERp44/DR5 complexes [1] = target: T1, ERp44/DR5 complexes (Homo sapiens, UniProt Q9BS26); test: ERp44 co-immunoprecipitation; format: cell-based; conditions: MDA-MB-468 cells inducibly expressing wild type DR5, 24 h, FIG. 7D
T1 construct: endogenous in cells; host or cells: MDA-MB-468
T1 sequence (Q9BS26 30-406): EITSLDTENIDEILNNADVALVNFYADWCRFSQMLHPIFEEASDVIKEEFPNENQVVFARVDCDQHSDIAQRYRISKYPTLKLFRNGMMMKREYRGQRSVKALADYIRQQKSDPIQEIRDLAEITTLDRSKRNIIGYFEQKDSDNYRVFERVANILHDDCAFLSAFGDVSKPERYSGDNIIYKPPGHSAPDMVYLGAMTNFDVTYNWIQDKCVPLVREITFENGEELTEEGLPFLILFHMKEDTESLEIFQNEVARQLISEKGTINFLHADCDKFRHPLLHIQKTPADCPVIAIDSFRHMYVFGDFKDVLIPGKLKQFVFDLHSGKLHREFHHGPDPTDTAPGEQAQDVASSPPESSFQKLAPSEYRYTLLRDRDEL
T1 sequence (O14763 56-440 partner): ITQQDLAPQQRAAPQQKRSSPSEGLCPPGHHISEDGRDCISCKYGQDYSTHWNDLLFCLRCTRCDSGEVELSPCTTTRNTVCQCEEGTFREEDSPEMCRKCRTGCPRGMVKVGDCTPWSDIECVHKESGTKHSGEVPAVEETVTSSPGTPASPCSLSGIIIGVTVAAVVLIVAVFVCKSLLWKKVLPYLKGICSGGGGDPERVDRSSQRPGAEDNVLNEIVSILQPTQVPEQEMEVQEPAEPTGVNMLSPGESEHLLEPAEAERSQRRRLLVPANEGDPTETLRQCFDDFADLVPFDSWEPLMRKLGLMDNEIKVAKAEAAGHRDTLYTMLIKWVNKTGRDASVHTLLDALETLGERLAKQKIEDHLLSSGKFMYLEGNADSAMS

ERp44/DR5 complexes [2] = target: T2, ERp44/DR5 complexes (Homo sapiens, UniProt Q9BS26); test: ERp44 co-immunoprecipitation; format: cell-based; conditions: MDA-MB-468 cells inducibly expressing Δ81-178 DR5, 24 h, FIG. 7D
T2 construct: endogenous in cells; host or cells: MDA-MB-468
T2 sequence (Q9BS26 30-406, one chain of several): as the sequence (Q9BS26 30-406) above

AGR2 = target: T3, AGR2 (Homo sapiens, UniProt O95994); test: AGR2 dimer formation in stable cell lines, non-reducing immunoblot; format: cell-based; set-up: expressed in transfected cells; conditions: MDA-MB-468 stable cell lines, 5 μM, 24 h, FIG. 2F
T3 sequence (O95994 21-175): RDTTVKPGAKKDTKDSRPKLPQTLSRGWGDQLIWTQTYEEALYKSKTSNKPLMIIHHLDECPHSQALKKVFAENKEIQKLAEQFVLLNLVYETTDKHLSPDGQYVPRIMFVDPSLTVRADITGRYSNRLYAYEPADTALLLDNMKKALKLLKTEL
Experimental: as §2

AGR3 = target: T4, AGR3 (Homo sapiens, UniProt Q8TD06); test: DDA binding assay with AGR3; conditions: molar excess, pre-incubation with 600 μM, FIG. 2D
T4 construct: His6 (N); purchased ProSpec PRO-242
T4 sequence (Q8TD06 22-166): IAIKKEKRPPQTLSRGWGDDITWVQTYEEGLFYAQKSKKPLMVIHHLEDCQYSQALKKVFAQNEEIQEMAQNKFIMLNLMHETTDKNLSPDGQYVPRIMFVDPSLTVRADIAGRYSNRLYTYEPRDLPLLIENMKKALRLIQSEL
Experimental: Purified His6-AGR2 or His6-AGR2 C81S, as prepared above, or His6-AGR2 (PRO-580) or His6-AGR3 (PRO-242) obtained from ProSpec (New Brunswick NJ) were incubated with or without varying concentrations of the unlabeled DDA competitors, tcyDTDO or dMtcyDTDO, and 30 μM Biotin-GlyPyrDTDO or Biotin-PyrDTDO in buffer (20 mM HEPES (pH 7.4), 1 mM EDTA, 1 mM EGTA, 5% Glycerol, 1 nM Microcystin, 1 mM Na3VO4, and 40 mM Na2H2P2O7) containing 1% Triton-X 100 for 30 min at 37° C. […] Therefore, the two probes were used interchangeably. Reactions were stopped by boiling the samples in 2×-SDS-Sample Buffer containing 100 mM NEM for 10 min. Biotin-DDA labeling of protein was verified by blotting with Streptavidin-Alkaline Phosphatase (Rockland Immunochemicals, Inc., Limerick, PA). ERp44 (PRO-547) and PDIA1 (ENZ-262) were obtained from ProSpec and used in experiments examining the binding of these proteins to Biotin-PyrDTDO.

MDA-MB-468 cells [3] = test: 3H-Leucine protein synthesis assay; format: cell-based; conditions: 24 h, FIG. 9A
Experimental: Protein synthesis assays utilizing ^3H-Leucine purchased from Perkin Elmer (Waltham, MA) were carried out as detailed previously (Law B K, et al. J Biol Chem 2000; 275: 10796-10801; Law B K, et al. J Biol Chem 2000; 275: 38261-38267).

PDIA1 = PDIA1 (Homo sapiens, UniProt P07237); test: PDIA1 disulfide bonding with client proteins, non-reducing immunoblot; format: cell-based; set-up: endogenous in cells; host or cells: MDA-MB-468; conditions: MDA-MB-468 cells, 5 μM, 24 h, FIG. 3E
Chain of PDIA1 (P07237 18-508): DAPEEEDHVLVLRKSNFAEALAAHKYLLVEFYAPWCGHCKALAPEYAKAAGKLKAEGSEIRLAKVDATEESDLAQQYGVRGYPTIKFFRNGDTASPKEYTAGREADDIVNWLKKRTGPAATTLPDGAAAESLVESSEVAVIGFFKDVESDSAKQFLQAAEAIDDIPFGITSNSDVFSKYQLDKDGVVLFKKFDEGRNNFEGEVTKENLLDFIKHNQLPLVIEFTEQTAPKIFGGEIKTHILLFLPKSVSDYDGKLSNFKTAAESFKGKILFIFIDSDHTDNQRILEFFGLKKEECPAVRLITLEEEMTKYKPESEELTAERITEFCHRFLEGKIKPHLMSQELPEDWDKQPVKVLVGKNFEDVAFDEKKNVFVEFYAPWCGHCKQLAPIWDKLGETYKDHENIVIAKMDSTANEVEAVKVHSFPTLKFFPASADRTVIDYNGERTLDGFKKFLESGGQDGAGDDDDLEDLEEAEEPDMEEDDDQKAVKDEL
Experimental: as §2

MDA-MB-468 cells [4] = test: Thymidine incorporation (DNA synthesis) assay; format: cell-based; conditions: 24 h, FIG. 9A
Experimental: Thymidine incorporation assays were performed as described previously (Corsino P, et al. J Biol Chem 2009; 284: 29945-29955).

Which “Levels and oligomerization of DR4, densitometry” value (DR4; 0, 1.25, 2.5, 5 uM, FIG. 1F) does the source give for `CO[C@H]1C[C@@H]2CS(=O)(=O)SC[C@H]2C[C@@H]1OC` [dMtcyDTDO, dimethoxy-tcyDTDO] here?
Its value is “increases DR4 oligomerization without affecting overall DR4 levels”.

What about the “Concentration at which disulfide-mediated oligomerization of DR4 was detected” value (DR4; MDA-MB-468 cells, 24 h, FIG. 1E right) of the same molecule?
Its value is 625 nM.

What about the “DR4/5 oligomerization at the same concentration (DR4)” value (DR4; MDA-MB-468 cells, 24 h, compared with tcyDTDO, FIG. 1E left) of the same molecule?
Its value is “more DR4/5 oligomerization”.

And the “Concentration at which disulfide-mediated oligomerization of EGFR was detected” value (EGFR)?
The value was 625 nM.

And the “ERp44 binding to wild type DR5 in treated cells” value (ERp44/DR5 complexes [1])?
Its value is “wild type DR5 bound ERp44”.

And the “ERp44 binding to DR5[Δ81-178] in treated cells” value (ERp44/DR5 complexes [2])?
The value was “barely detectable”.

What about the “AGR2 dimer formation in cells with enforced AGR2 expression” value (AGR2) of the same molecule?
Its value is “blocked dimer formation by wild type AGR2”.

What about the “Competition with Biotin-GlyPyrDTDO binding to AGR3” value (AGR3) of the same molecule?
Its value is “partially prevented Biotin-GlyPyrDTDO binding”.

And the “Potency in protein synthesis assay relative to tcyDTDO” value (MDA-MB-468 cells [3])?
Its value is “two-fold greater potency than tcyDTDO”.

And the “Disulfide bonding of PDIA1 with client proteins” value (PDIA1)?
Its value is “reduces disulfide bonding of ERp44 and PDIA1 with multiple proteins”.

And the “Monomeric levels of PDIA1” value (PDIA1)?
Its value is “minimal effect on monomeric levels”.

What about the “Potency in DNA synthesis assay relative to tcyDTDO” value (MDA-MB-468 cells [4]) of the same molecule?
Its value is “two-fold greater potency than tcyDTDO”.
